From patent publication US20090068290A1, “BIFEPRUNOX DOSES FOR TREATING SCHIZOPHRENIA” (priority 2006, published 2009)

System: adult subjects with schizophrenia
Assay: BPRS psychosis cluster score, Clinical Study Three
Type: in vivo, human
Conditions: LOCF; for Change from Baseline in BPRS Psychosis Cluster Score, Mean (SD) / Change from Baseline in BPRS Psychosis Cluster Score, Median: Olanzapine 15 mg, ITT population
Text: SECONDARY OBJECTIVES To assess the efficacy of bifeprunox in treating schizophrenia using the Positive Symptom sub-scale score of the PANSS, the Negative Symptom sub-scale score of the PANSS, the General Psychopathology sub-scale of the PANSS, Brief Psychiatric Rating Scale (BPRS) total score derived from the PANSS, BPRS psychosis score derived from the PANSS, the Clinical Global Impression Severity of Illness score (CGI-S), the Clinical Global Impression Improvement score (CGI-I), CGI-I responder rate, PANSS responder rate based on the PANSS total score, Calgary Depression Scale for Schizophrenia (CDSS), and Subject Satisfaction rating.
There were four treatment arms in this study, approximately 144 subjects per arm. […] After completing the Single-Blind Placebo Lead-in Period of at least three days, bifeprunox-treated subjects were titrated from 0.25 mg up to 20 mg/day or 30 mg/day according to a standardized titration scheme over a seven- or eight-day period, respectively. When the assigned dose was reached, subjects were maintained at that dose for the remainder of the six week treatment period. […] Subjects were hospitalized (if not already inpatients) after eligibility for study entry was verified, starting from the Screening Visit until at least 10 days after Baseline. Subjects could be hospitalized longer than 10 days if considered medically necessary by the Investigator. Rating scale assessments for efficacy and abnormal movement disorders were done weekly except for Week 5. […] Subject satisfaction with study medication was assessed at Week 6.

For `Cc1cc2c(s1)Nc1ccccc1N=C2N1CCN(C)CC1` [Olanzapine, olanzapine, reference compound], the “Change from Baseline in BPRS Psychosis Cluster Score, Mean (SD)” value (shortened to “Change from Baseline … (SD)”) (Week 1) was −1.9 (2.3), the “Change from Baseline in BPRS Psychosis Cluster Score, Median” value (shortened to “Change from Baseline … Median”) (Week 1) was −2 and the “Change from Baseline … (SD)” value (Week 2) was −3.1 (2.6). For the same molecule, the “Change from Baseline … Median” value (Week 2) was −3, the “Change from Baseline … (SD)” value (Week 3) was −4.0 (3.2) and the “Change from Baseline … Median” value (Week 3) was −4. For the same molecule, the “Change from Baseline … (SD)” value (Week 4) was −4.4 (3.5), the “Change from Baseline … Median” value (Week 4) was −5 and the “Change from Baseline … (SD)” value (Week 6/Endpoint) was −4.9 (4.0). For the same molecule, the “Change from Baseline … Median” value (Week 6/Endpoint) was −5 and the “mean change (SD) from Baseline to Endpoint in BPRS psychosis cluster score” value (olanzapine 15 mg, ITT) was −4.9 (4.0).
